Consider three compounds from PubChem BioAssay AID1963443 (Molecular Pharmacology Branch, DTP, NCI, 2024).

Molecules are shown by their SMILES. pIC50: −log10 of the molar value. Several values for one entry are separate records, joined by “and”; a condition that tells them apart may be missing. Equal entries are not always repeated.

The assay concerns MDA-MB-231 complex spheroids, growth inhibition. Briefly: Anticancer human tumor MDA-MB-231 cell line growth inhibition [Asc].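 On all read-outs here: spheroids exposed to compounds for 7 days.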 The note with it: for viability, T/C: stronger effect = lower value. The essentials:
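Stromal components (HUVEC and hMSC) are co-assembled with the cancer cells into multicellular spheroids. Drugs are then added singly or paired, at concentrations falling by half-log increments from a clinically achievable maximum, capped at 10 microM without known Cmax.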

One may read the pIC50 as −log10 of the IC50, conventionally taken in molar units. As a reminder, the viability, T/C is the result in the treated group divided by that in the control group, in per cent.

In the case of `CNC(C)C(=O)NC1CN(S(=O)(=O)c2cccc(S(=O)(=O)N3CCC4CCC(C(=O)NC(c5ccccc5)c5ccccc5)N4C(=O)C(NC(=O)C(C)NC)C3)c2)CCC2CCC(C(=O)NC(c3ccccc3)c3ccccc3)N2C1=O` (centres undefined) + Cc1c(S(C)(=O)=O)c(-c2cc(F)cc(N3CCN(c4ccc(NS(=O)(=O)c5ccc(NC(CCN6CCC(C(=O)OCCCP(=O)(O)O)CC6)CSc6ccccc6)c(S(=O)(=O)C(F)(F)F)c5)cc4)CC3)c2)c(-c2ccc(Cl)cc2)n1C(C)C, the negative-log IC50 (pIC50) reads like this: (curve of first compound, second compound 0.1 µM) more than 8.50; (curve of first compound, second compound 0.316 µM) more than 8.50; (curve of first compound, second compound 1 µM) more than 8.50; (curve of first compound, second compound 3.16 µM) more than 8.50; (curve of first compound, second compound 10 µM) more than 8.50. The viability, T/C by setting is: (second compound 0.1 µM, first compound 0.00316 µM) 2.88%; (second compound 0.1 µM, first compound 0.01 µM) 0.95%; (second compound 0.1 µM, first compound 0.0316 µM) 0.9%; (second compound 0.1 µM, first compound 0.1 µM) 0.67%; (second compound 0.1 µM, first compound 0.316 µM) 0.5%; (second compound 0.1 µM, first compound 1 µM) 0.72%. The viability, T/C is 2.6% (second compound 0.316 µM, first compound 0.00316 µM); 0.97% (second compound 0.316 µM, first compound 0.01 µM); 0.75% (second compound 0.316 µM, first compound 0.0316 µM); 0.41% (second compound 0.316 µM, first compound 0.1 µM); 0.53% (second compound 0.316 µM, first compound 0.316 µM); 0.56% (second compound 0.316 µM, first compound 1 µM). For the same compound, the viability, T/C is 2.07% (second compound 1 µM, first compound 0.00316 µM); 0.62% (second compound 1 µM, first compound 0.01 µM); 0.54% (second compound 1 µM, first compound 0.0316 µM); 0.29% (second compound 1 µM, first compound 0.1 µM); 0.35% (second compound 1 µM, first compound 0.316 µM); 0.9% (second compound 1 µM, first compound 1 µM). In addition, the viability, T/C (second compound 3.16 µM, first compound 0.00316 µM) was 1.77%; the viability, T/C (second compound 3.16 µM, first compound 0.01 µM) was 0.46%; the viability, T/C (second compound 3.16 µM, first compound 0.0316 µM) is 0.35%; the viability, T/C (second compound 3.16 µM, first compound 0.1 µM) was 0.27%; the viability, T/C (second compound 3.16 µM, first compound 0.316 µM) is 0.26%; the viability, T/C (second compound 3.16 µM, first compound 1 µM) was 0.39%. The viability, T/C is, setting by setting: (second compound 10 µM, first compound 0.00316 µM) 1.22%; (second compound 10 µM, first compound 0.01 µM) 0.49%; (second compound 10 µM, first compound 0.0316 µM) 0.42%; (second compound 10 µM, first compound 0.1 µM) 0.48%; (second compound 10 µM, first compound 0.316 µM) 0.43%; (second compound 10 µM, first compound 1 µM) 0.61%.
For the compound `C=CC(=O)N1CCN(c2nc(=O)n(-c3c(C)ccnc3C(C)C)c3nc(-c4c(O)cccc4F)c(F)cc23)C(C)C1` (centres undefined), the viability, T/C was 101% and 102% and 103% (compound 0.0316 µM); 104% and 105% and 103% (compound 0.1 µM); 106% (2×) and 107% (compound 0.316 µM); 107% and 109% and 111% (compound 1 µM); 119% and 117% and 113% (compound 3.16 µM); 119% and 121% and 110% (compound 10 µM). In addition, for the setting “curve of compound”, the pIC50 is less than 5.00.
For `NC1CCC(NC2CC2c2ccccc2)CC1` (centres undefined), the viability, T/C (compound 0.000316 µM) was 102% and 98.5% and 104%; the viability, T/C (compound 0.001 µM) was 108% and 99% and 105%; the viability, T/C (compound 0.00316 µM) was 105% and 98.7% and 107%; the viability, T/C (compound 0.01 µM) is 105% and 98.6% and 101%; the viability, T/C (compound 0.0316 µM) is 103% and 96.8% and 107%; the viability, T/C (compound 0.1 µM) was 104% and 98.3% and 99.8%. Moreover, the pIC50 (curve of compound) was less than 7.00.
